Source: PubChem BioAssay (NCI)
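At the GI50, growth is halved. The concentration for full growth arrest is given as TGI.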

Legend:
Assay in all cases: DTP human tumour cell line panel, 384-well format
NCI-H23 lung = test system: NCI-H23 lung
NCI-H322M lung = test system: NCI-H322M lung
NCI-H460 NSCLC = test system: NCI-H460 NSCLC
NCI-H522 lung = test system: NCI-H522 lung
NCI/ADR-RES ovarian = test system: NCI/ADR-RES ovarian
OVCAR-3 ovarian = test system: OVCAR-3 ovarian
OVCAR-4 ovarian = test system: OVCAR-4 ovarian
OVCAR-5 ovarian = test system: OVCAR-5 ovarian
OVCAR-8 ovarian = test system: OVCAR-8 ovarian
PC-3 prostate = test system: PC-3 prostate
RPMI-8226 leukemia = test system: RPMI-8226 leukemia
RXF 393 renal = test system: RXF 393 renal
SF-268 CNS = test system: SF-268 CNS
SF-295 CNS = test system: SF-295 CNS
SF-539 CNS = test system: SF-539 CNS
SK-MEL-2 melanoma = test system: SK-MEL-2 melanoma
SK-MEL-28 melanoma = test system: SK-MEL-28 melanoma
SK-MEL-5 melanoma = test system: SK-MEL-5 melanoma
SK-OV-3 ovarian = test system: SK-OV-3 ovarian
SN12C renal = test system: SN12C renal
SNB-19 CNS = test system: SNB-19 CNS
SR leukemia = test system: SR leukemia
SW-620 colon = test system: SW-620 colon
T-47D breast = test system: T-47D breast
TK-10 renal = test system: TK-10 renal
U251 glioblastoma = test system: U251 glioblastoma
UACC-257 melanoma = test system: UACC-257 melanoma
UACC-62 melanoma = test system: UACC-62 melanoma
UO-31 renal = test system: UO-31 renal

`Cc1c(S(C)(=O)=O)c(-c2cc(F)cc(N3CCN(c4ccc(NS(=O)(=O)c5ccc(N[C@H](CCN6CCC(C(=O)OCCCP(=O)(O)O)CC6)CSc6ccccc6)c(S(=O)(=O)C(F)(F)F)c5)cc4)CC3)c2)c(-c2ccc(Cl)cc2)n1C(C)C` gave a TGI (NCI-H23 lung) of over 100 µM, a GI50 (NCI-H322M lung) of over 100 µM and a TGI (NCI-H322M lung) of over 100 µM. It also gave a GI50 (NCI-H460 NSCLC) of over 100 µM, a TGI (NCI-H460 NSCLC) of over 100 µM and a GI50 (NCI-H522 lung) of over 100 µM. It also gave a TGI (NCI-H522 lung) of over 100 µM, a GI50 (NCI/ADR-RES ovarian) of over 100 µM and a TGI (NCI/ADR-RES ovarian) of over 100 µM. The GI50 (OVCAR-3 ovarian) was over 100 µM, the TGI (OVCAR-3 ovarian) was over 100 µM and the GI50 (OVCAR-4 ovarian) was over 100 µM. It also gave a TGI (OVCAR-4 ovarian) of over 100 µM, a GI50 (OVCAR-5 ovarian) of over 100 µM and a TGI (OVCAR-5 ovarian) of over 100 µM. It also gave a GI50 (OVCAR-8 ovarian) of over 100 µM, a TGI (OVCAR-8 ovarian) of over 100 µM and a GI50 (PC-3 prostate) of over 100 µM. It also gave a TGI (PC-3 prostate) of over 100 µM, a GI50 (RPMI-8226 leukemia) of 0.0131 µM and a TGI (RPMI-8226 leukemia) of 0.0361 µM. For the same compound, the GI50 (RXF 393 renal) was 0.12 µM, the TGI (RXF 393 renal) was 30.3 µM and the GI50 (SF-268 CNS) was over 100 µM. For the same compound, the TGI (SF-268 CNS) was over 100 µM, the GI50 (SF-295 CNS) was over 100 µM and the TGI (SF-295 CNS) was over 100 µM. It also gave a GI50 (SF-539 CNS) of over 100 µM, a TGI (SF-539 CNS) of over 100 µM and a GI50 (SK-MEL-2 melanoma) of over 100 µM. The TGI (SK-MEL-2 melanoma) was over 100 µM, the GI50 (SK-MEL-28 melanoma) was over 100 µM and the TGI (SK-MEL-28 melanoma) was over 100 µM. It also gave a GI50 (SK-MEL-5 melanoma) of over 100 µM, a TGI (SK-MEL-5 melanoma) of over 100 µM and a GI50 (SK-OV-3 ovarian) of over 100 µM. It also gave a TGI (SK-OV-3 ovarian) of over 100 µM, a GI50 (SN12C renal) of over 100 µM and a TGI (SN12C renal) of over 100 µM. It also gave a GI50 (SNB-19 CNS) of over 100 µM, a TGI (SNB-19 CNS) of over 100 µM and a GI50 (SR leukemia) of 0.892 µM. For the same compound, the TGI (SR leukemia) was over 100 µM, the GI50 (SW-620 colon) was over 100 µM and the TGI (SW-620 colon) was over 100 µM. The GI50 (T-47D breast) was over 100 µM, the TGI (T-47D breast) was over 100 µM and the GI50 (TK-10 renal) was over 100 µM. The TGI (TK-10 renal) was over 100 µM, the GI50 (U251 glioblastoma) was over 100 µM and the TGI (U251 glioblastoma) was over 100 µM. The GI50 (UACC-257 melanoma) was over 100 µM, the TGI (UACC-257 melanoma) was over 100 µM and the GI50 (UACC-62 melanoma) was over 100 µM. The TGI (UACC-62 melanoma) was over 100 µM, the GI50 (UO-31 renal) was over 100 µM and the TGI (UO-31 renal) was over 100 µM.
